{"source": "paper PMC7669869", "about": "“AdipoR1/AdipoR2 dual agonist recovers nonalcoholic steatohepatitis and related fibrosis via endoplasmic reticulum-mitochondria axis” (Nature Communications, 2020)", "key": {"[1]": {"system": "CCl4 induced liver fibrosis mice", "experiment": "CCl4 mice: serum ALT, AST and liver HYP", "type": "in vivo, mouse", "parameters": "AST, Supplementary Figure 14 / HYP, Supplementary Figure 14: unit not given here", "details": "for HYP, Supplementary Figure 14 / AST, Supplementary Figure 14: CCl4 + JT003 mice; for HYP, Supplementary Figure 14: liver; for AST, Supplementary Figure 14: serum", "experimental": "Male mice liver fibrosis was induced by intraperitoneal injection of 20% CCl4 (Sigma, USA) diluted in corn oil (Aladdin, China) every 3 days for 6 weeks (n = 6; 5 ml kg^−1 body weight). Mice injected with equivalent volume of corn oil serves as control group (n = 6). Liver fibrosis mice treated with JT003 for 3 weeks were used to evaluated the pharmacological effects (n = 6; 500 μg kg^−1; daily intraperitoneal injection).\nThe levels of ALT, AST, TC and TG in serum were determined using certain commercial assay kits (Nanjing Jiancheng Bioengineering Institute, China). Fasting adiponectin and insulin were quantified in plasma samples using corresponding commercially available Elisa kits (Cloud-Clone Crop, USA).\nThe levels of TG and HYP in liver tissue were detected with certain commercial assay kit (Nanjing Jiancheng Bioengineering Institute, China). Formalin-fixed liver tissues were embedded in paraffin, sectioned into 5 μm slices. After deparaffinization and rehydration of the section slices, they were stained with Haematoxylin and Eosin or Periodic Acid-Schiff. For the detection of liver collagen content, Sirius Red staining for collagen was performed. OCT-embedded frozen liver tissues were sectioned into 12 μm slices, and Oil Red O staining was performed. The cryostat-cut slices were stained with freshly prepared Oil Red O working solution for 7 min Two independent experimenters who were blinded to the treatment evaluated the staining slides and analyzed the score for steatosis, glucogen accumulation and collagen proliferation area."}, "HFD induced NASH mice": {"system": "HFD induced NASH mice", "experiment": "HFD induced NASH (NAFLD) mice: weight gain, liver appearance", "type": "in vivo, mouse", "details": "JT003 500 μg kg−1 i.p. daily 4 weeks, vs HFD, in words", "experimental": "Male C57BL/6J mice of 6–8 weeks of age (20–24 g) were used in these experiments including the NAFLD model and liver fibrosis model. The mice were purchased from Guangdong Medical Laboratory Animal Center and housed in standard isolator cages and maintained on a room temperature of 25 °C and a 12 h:12 h light/dark cycle. At the end of the experiments, mice were fasted 8 h prior to sacrifice. Liver tissue and/or epididymal adipose tissue were flash frozen in liquid nitrogen (with or without RNAlater (TransGen Biotech, China)) and stored at −80 °C for future use, or fixed in 10% paraformaldehyde for histological assays. Blood samples were obtained from the posterior venous plexus of the eyes of anesthetized mice, Blood was separated by centrifugation at 1000g for 15 min Serum was then stored at −80 °C. The ethical approval has been obtained from Animal Care and Use Committee of the Sun Yat-sen University. All animals were maintained in pathogen-free conditions and cared for in accordance with policies and certification of the Association for Assessment and Accreditation of Laboratory Animal Care International (AAALAC International).\nThe NASH model was conducted with feeding a HFD for 16 weeks combine with a MCD diet (Methionine/Choline Deficient Diet, Medicience, China) in the last 4 weeks. […]"}, "AdipoR1": {"biological_target": "T1, AdipoR1 (Homo sapiens, UniProt Q96A54)", "T1 construct": "His; host or cells: HEK293", "T1 sequence (Q96A54 1-375)": "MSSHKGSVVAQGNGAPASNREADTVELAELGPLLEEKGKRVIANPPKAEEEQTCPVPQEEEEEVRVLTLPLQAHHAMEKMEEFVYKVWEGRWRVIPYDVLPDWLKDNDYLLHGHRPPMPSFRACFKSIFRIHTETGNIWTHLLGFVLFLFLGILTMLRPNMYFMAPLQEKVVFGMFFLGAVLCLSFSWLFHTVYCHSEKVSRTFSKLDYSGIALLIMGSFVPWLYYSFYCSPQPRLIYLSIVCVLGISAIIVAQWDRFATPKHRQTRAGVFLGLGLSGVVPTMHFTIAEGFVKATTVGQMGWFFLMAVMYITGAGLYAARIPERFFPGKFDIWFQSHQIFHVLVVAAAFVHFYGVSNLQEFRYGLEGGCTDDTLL", "experiment": "HTRF binding, AdipoR1 overexpression HEK293 cells", "details": "in words", "experimental": "The expression plasmid of AdipoR1 and AdipoR2 were synthesized and codon optimized by Genescript (Nanjing, China) for their expression in HEK293 cell line. The concentration of FITC-JT003 was 0, 0.1, 0.25, 0.5, 1, 2.5 or 5 μM respectively. Unlabeled peptide JT003 was used as the control to measure the non-specific signal. 10E4 AdipoR1 and AdipoR2 overexpression cells, anti-His-Tb (ThermoFisher Scientific, USA) and JT003-FITC were added into a 384-well plate, with a total volume of 25μl. The mixtures were incubated at room temperature for 30 min in the dark. Fluorescent values at 520 nm and 620 nm were measured for Kd calculation."}}, "note": "Non-standard residues stand in square brackets, D forms with d. Residues, ends and D or L forms follow the SMILES beside them. Nva = CCC[C@H](N)C(=O)O", "data": [{"smiles": "CCC[C@H](NC(=O)[C@@H]1CCCN1)C(=O)N[C@@H](CC(C)C)C(=O)N[C@@H](Cc1ccc(O)cc1)C(=O)N[C@@H](Cc1ccc(O)cc1)C(=O)N[C@@H](Cc1ccccc1)C(=O)N[C@@H](C)C(N)=O", "note": "[JT003] (H-P[Nva]LYYFA-NH2)", "values": [{"measurement": "HYP, Supplementary Figure 14", "setting": "[1]; replicate 1", "value": 4.654}, {"measurement": "HYP, Supplementary Figure 14", "setting": "[1]; replicate 2", "value": 11.7831}, {"measurement": "HYP, Supplementary Figure 14", "setting": "[1]; replicate 3", "value": 12.1297}, {"measurement": "AST, Supplementary Figure 14", "setting": "[1]; replicate 1", "value": 54.5376}, {"measurement": "AST, Supplementary Figure 14", "setting": "[1]; replicate 2", "value": 45.2431}, {"measurement": "AST, Supplementary Figure 14", "setting": "[1]; replicate 3", "value": 22.8392}, {"measurement": "AST, Supplementary Figure 14", "setting": "[1]; replicate 4", "value": 27.6777}, {"measurement": "AST, Supplementary Figure 14", "setting": "[1]; replicate 5", "value": 24.2523}, {"measurement": "AST, Supplementary Figure 14", "setting": "[1]; replicate 6", "value": 28.6282}, {"measurement": "ALT, AST and HYP activities", "setting": "[1]; CCl4 mice, JT003 500 μg kg−1 i.p. daily 3 weeks, in words", "value": "notably diminished"}, {"measurement": "weight gain", "setting": "HFD induced NASH mice", "value": "significantly reduced the weight gain"}, {"measurement": "Kd value for AdipoR1 compared to JT006 and ADP355", "setting": "AdipoR1", "value": "significantly lower Kd value"}]}]}
